Test results taken from patent publication US3997527A, “Aminomethylarylmethylpenicillin derivatives” (Pfizer Inc., priority 1976, dated 1976).
Converted amounts (≈) assume the structure as drawn.

Tests used:
Format in all cases: cell-based
[1] = tested on: S. aureus 01A005; experiment: In vitro antibacterial activity (MIC), S. aureus 01A005; settings: Staphylococcus aureus, nutrient broth
Description: (§1) As has been previously mentioned, the penicillins of the present invention are broad spectrum antibiotics which are, unlike many penicillin analogs, highly antagonistic toward gram-negative microorganisms, in particular E. coli and Klebsiella. This unusual activity against certain gram-negative organisms may be attributed to the positioning of the aminomethyl substituent adjacent to the linking amide moiety. The marked effectiveness of this positioning can be readily seen in an antibacterial comparison of 6-(o-aminomethylphenylacetamido)penicillanic acid (o-AMP), a preferred compound of the present invention and 6-(p-aminomethylphenylacetamido)penicillanic acid (p-AMP), a compound of the previously-mentioned British Pat. 1,057,029.

[2] = tested on: S. aureus 01A052; experiment: In vitro antibacterial activity (MIC), S. aureus 01A052; settings: Staphylococcus aureus, nutrient broth
Description: as §1

[3] = tested on: S. pyogenes 020803; experiment: In vitro antibacterial activity (MIC), S. pyogenes 020803; settings: Streptococcus pyogenes, nutrient broth
Description: as §1

[4] = tested on: E. coli 51A002; experiment: In vitro antibacterial activity (MIC), E. coli 51A002; settings: Escherichia coli, nutrient broth
Description: as §1

[5] = tested on: E. coli 51A215; experiment: In vitro antibacterial activity (MIC), E. coli 51A215; settings: Escherichia coli, nutrient broth
Description: as §1

[6] = tested on: E. coli 51A266; experiment: In vitro antibacterial activity (MIC), E. coli 51A266; settings: Escherichia coli, nutrient broth
Description: as §1

[7] = tested on: Kleb. pneumoniae 53A009; experiment: In vitro antibacterial activity (MIC), Kleb. pneumoniae 53A009; settings: Klebsiella pneumoniae, nutrient broth
Description: as §1

[8] = tested on: Salm. typhm. 530013; experiment: In vitro antibacterial activity (MIC), Salm. typhm. 530013; settings: nutrient broth
Description: as §1

[9] = tested on: Past. mult. 59A001; experiment: In vitro antibacterial activity (MIC), Past. mult. 59A001; settings: nutrient broth
Description: as §1

[10] = tested on: Entero. aero. 55A004; experiment: In vitro antibacterial activity (MIC), Entero. aero. 55A004; settings: nutrient broth
Description: as §1

Structure (SMILES)	MIC [1] [µg/mL]	MIC [2] [µg/mL]	MIC [3] [µg/mL]	MIC [4] [µg/mL]	MIC [5] [µg/mL]	MIC [6] [µg/mL]	MIC [7] [µg/mL]	MIC [8] [µg/mL]	MIC [9] [µg/mL]	MIC [10] [µg/mL]
CC1(C)S[C@@H]2C(NC(=O)Cc3ccc(CN)cc3)C(=O)N2[C@H]1C(=O)O (some centres unmarked) [p-AMP, 6-(p-aminomethylphenylacetamido)penicillanic acid]	200 (≈ 550 µM)	200 (≈ 550 µM)	0.39 (≈ 1.07 µM)	> 200	6.25 (≈ 17.2 µM)	50 (≈ 138 µM)	50 (≈ 138 µM)	12.5 (≈ 34.4 µM)	0.39 (≈ 1.07 µM)	> 200
CC1(C)S[C@@H]2C(NC(=O)Cc3ccccc3CN)C(=O)N2[C@H]1C(=O)O (some centres unmarked) [o-AMP, 6-(o-aminomethylphenylacetamido)penicillanic acid]	0.2 (≈ 0.55 µM)	1.56 (≈ 4.29 µM)	< 0.1	200 (≈ 550 µM)	6.25 (≈ 17.2 µM)	3.12 (≈ 8.58 µM)	3.12 (≈ 8.58 µM)	3.12 (≈ 8.58 µM)	0.2 (≈ 0.55 µM)	1.56 (≈ 4.29 µM)
